Source: PMC2658056 (The Journal of Biological Chemistry, 2009)
Where a chain is given by its changes, count along the chain named. pIC50, pKi: −log10 of the molar value. Converted amounts (≈) assume the structure as drawn. Each block holds one compound with its values, some of them ahead of it.

Experiments:
[1] = molecular target: T1, C89A/C186A mutant of mouse L-PGDS (Mus musculus, UniProt O09114, C186A/C89A); assay: Intrinsic tryptophan fluorescence quenching assay, C89A/C186A mutant; format: binding
T1 sequence (O09114 23-189 C89A/C186A): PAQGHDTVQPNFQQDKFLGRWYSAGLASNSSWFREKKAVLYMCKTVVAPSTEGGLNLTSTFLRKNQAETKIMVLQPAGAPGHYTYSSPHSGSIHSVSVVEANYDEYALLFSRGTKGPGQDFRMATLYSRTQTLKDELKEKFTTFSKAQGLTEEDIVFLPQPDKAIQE

[2] = molecular target: T2, W54A/C89A/C186A mutant of mouse L-PGDS (Mus musculus, UniProt O09114, C186A/C89A/W54A); assay: Intrinsic tryptophan fluorescence quenching assay, W54A/C89A/C186A mutant; format: binding
T2 sequence (O09114 23-189 W54A/C89A/C186A): T1 sequence (O09114 23-189 C89A/C186A) with W32A

[3] = tested on: H-PGDS-expressing human megakaryoblastic MEG-01S cells; assay: PGD2 production by A23187-stimulated MEG-01S cells; format: cell-based
[4] = molecular target: COX-1 (Homo sapiens, UniProt P23219); assay: COX-1 enzyme activity assay; format: biochemical; conditions: AT-56 up to 250 μM
Sequence of COX-1 (P23219 24-599): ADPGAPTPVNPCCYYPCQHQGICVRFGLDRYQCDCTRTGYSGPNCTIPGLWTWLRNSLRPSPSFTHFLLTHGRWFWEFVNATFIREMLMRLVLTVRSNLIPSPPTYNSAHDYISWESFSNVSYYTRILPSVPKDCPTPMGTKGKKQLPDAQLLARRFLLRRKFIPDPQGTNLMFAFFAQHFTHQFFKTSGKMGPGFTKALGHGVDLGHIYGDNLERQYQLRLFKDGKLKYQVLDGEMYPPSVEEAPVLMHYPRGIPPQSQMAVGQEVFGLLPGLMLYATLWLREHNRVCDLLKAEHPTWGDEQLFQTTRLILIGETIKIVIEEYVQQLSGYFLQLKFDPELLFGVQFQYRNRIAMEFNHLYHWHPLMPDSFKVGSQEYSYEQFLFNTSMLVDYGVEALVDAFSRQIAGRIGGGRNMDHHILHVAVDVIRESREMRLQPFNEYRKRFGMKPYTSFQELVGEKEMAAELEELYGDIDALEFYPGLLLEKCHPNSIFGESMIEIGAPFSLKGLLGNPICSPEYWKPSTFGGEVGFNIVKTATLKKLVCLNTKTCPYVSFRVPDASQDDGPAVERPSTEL

[5] = molecular target: T3, recombinant mouse L-PGDS C89A/C186A mutant (Mus musculus, UniProt O09114, C186A/C89A); assay: biochemical
T3 sequence (O09114 23-189 C89A/C186A): T1 sequence (O09114 23-189 C89A/C186A)

[6] = molecular target: T4, m-PGES-1 (Homo sapiens, UniProt O14684); assay: m-PGES-1 enzyme activity assay; format: biochemical; conditions: AT-56 up to 250 μM
T4 sequence (O14684 1-152): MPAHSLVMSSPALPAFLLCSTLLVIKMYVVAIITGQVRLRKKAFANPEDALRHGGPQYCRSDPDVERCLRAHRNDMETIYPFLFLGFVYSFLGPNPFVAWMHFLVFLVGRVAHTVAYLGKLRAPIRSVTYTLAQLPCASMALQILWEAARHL

[7] = Pharmacokinetics of AT-56 in plasma; format: in vivo, C57BL/6 mice; conditions: male, C57BL/6, mouse; for Tmax: mice
[8] = molecular target: H-PGDS (Homo sapiens, UniProt O60760); assay: H-PGDS enzyme activity assay; format: biochemical; conditions: AT-56 up to 250 μM
Sequence of H-PGDS (O60760 whole entry, species assumed): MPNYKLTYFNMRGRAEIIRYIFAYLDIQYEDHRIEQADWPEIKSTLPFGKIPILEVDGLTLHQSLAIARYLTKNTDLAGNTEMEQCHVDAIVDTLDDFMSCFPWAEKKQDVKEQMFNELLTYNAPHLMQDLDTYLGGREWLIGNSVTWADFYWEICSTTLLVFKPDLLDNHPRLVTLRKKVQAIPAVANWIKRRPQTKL

[9] = Maximum solubility in aqueous solution; format: physicochemical
[10] = tested on: human L-PGDS TG mice; assay: L-PGDS-mediated allergic airway inflammation; format: in vivo
[11] = tested on: L-PGDS-expressing human medulloblastoma TE-671 cells; assay: PG production by A23187-stimulated TE-671 cells; format: cell-based
[12] = tested on: brain of H-PGDS KO mice; assay: PG production by stab wound brain injury
[13] = Acute toxicity after oral administration; format: in vivo; conditions: dose of 100 mg/kg
[14] = molecular target: T5, COX-2 (Homo sapiens, UniProt P35354); assay: COX-2 enzyme activity assay; format: biochemical; conditions: AT-56 up to 250 μM
T5 sequence (P35354 18-604): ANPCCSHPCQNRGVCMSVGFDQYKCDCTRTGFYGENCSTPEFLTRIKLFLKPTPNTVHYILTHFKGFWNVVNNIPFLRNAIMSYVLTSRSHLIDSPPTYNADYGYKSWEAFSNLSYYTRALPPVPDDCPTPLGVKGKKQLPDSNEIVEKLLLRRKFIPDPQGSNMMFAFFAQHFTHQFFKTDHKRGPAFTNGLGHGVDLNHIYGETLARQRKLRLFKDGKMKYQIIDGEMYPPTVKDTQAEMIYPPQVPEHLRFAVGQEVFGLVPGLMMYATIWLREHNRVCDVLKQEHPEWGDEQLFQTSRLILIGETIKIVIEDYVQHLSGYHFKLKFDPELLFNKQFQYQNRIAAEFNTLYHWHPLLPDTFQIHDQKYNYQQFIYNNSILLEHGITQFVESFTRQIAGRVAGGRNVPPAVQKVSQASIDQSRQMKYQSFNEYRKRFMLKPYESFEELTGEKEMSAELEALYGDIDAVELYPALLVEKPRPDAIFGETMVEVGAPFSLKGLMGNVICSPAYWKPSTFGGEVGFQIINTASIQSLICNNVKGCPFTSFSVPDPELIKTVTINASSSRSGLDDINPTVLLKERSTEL

[15] = 0 to 30 μM AT-56, 5 μM A23187, enzyme immunoassay

tryptophan fluorescence intensity decreased to ([1]; 10 μM 13-cis-retinoic acid, absence of AT-56): about 8%
tryptophan fluorescence intensity decreased to ([1]; 10 μM 13-cis-retinoic acid, in the presence of 10 μM AT-56): < 10%
tryptophan fluorescence intensity decreased to ([2]; 10 μM 13-cis-retinoic acid): < 10%
Structure (SMILES): CC1=C(/C=C/C(C)=C/C=C/C(C)=C\C(=O)O)C(C)(C)CCC1 [13-cis-retinoic acid, reference compound]

Structure (SMILES): C1=Cc2ccccc2C(=C2CCN(CCCCc3nn[nH]n3)CC2)c2ccccc21 [AT-56, 4-dibenzo[a,d]cyclohepten-5-ylidene-1-[4-(2H-tetrazol-5-yl)-butyl]-piperidine]
effect on PGD2 production [3]: no effect
effect on COX-1 activity [4]: not significantly affected
pIC50 [5]: 4.02
pKi [5]: 4.12
effect on m-PGES-1 activity [6]: not significantly affected
AUC ([7]; iv, 2 mg/kg): 1280 ng·h/mL
C0 ([7]; iv, 2 mg/kg): 860 ng/mL
half-life ([7]; iv, 2 mg/kg): 2.35 h
Tmax ([7]; iv, 2 mg/kg): 0.08 h
AUC ([7]; po, 10 mg/kg): 8950 ng·h/mL
Cmax ([7]; po, 10 mg/kg): 2150 ng/mL
bioavailability ([7]; po, 10 mg/kg): 82%
concentration at 12 h ([7]; po, 10 mg/kg): < 0.4 ng/mL
half-life ([7]; po, 10 mg/kg): 1.71 h
Tmax ([7]; po, 10 mg/kg, per os): 0.5 h
effect on H-PGDS activity [8]: not significantly affected
effect on binding of 13-cis-retinoic acid to L-PGDS ([1]; 10 μM AT-56): did not inhibit the binding
tryptophan fluorescence intensity decreased to ([1]; 10 μM AT-56): about 60%
solubility ([9]; 10% DMSO): 260 µM (≈ 103 µg/mL)
solubility ([9]; saline containing 1% DMSO): 90 µM (≈ 35.8 µg/mL)
total cells in BALF, actual number ([10]; 1 mg/kg AT-56 p.o.): 8.7 ± 1.9 × 10^4 cells/ml
total cells in BALF, actual number ([10]; 10 mg/kg AT-56 p.o.): 2.7 ± 0.4 × 10^4 cells/ml
fluorescence quenching ([2]; 10 μM AT-56): did not show the fluorescence quenching
effect on PGE2 production [11, 15]: without affecting
effect on PGF2α production [11, 15]: without affecting
PGD2 biosynthesis ([11]; 10 μM AT-56, A23187): only a base level
arachidonic acid release ([11]; 10 μM AT-56, A23187): without changing
pIC50 ([11]; Homo sapiens, TE-671, read-out: IC50, PGD2 production): ~5.52
production of other 14C-labeled metabolites ([11]; [1-14C]arachidonic acid-prelabeled cells, AT-56 up to 100 μM): not inhibited
total amount of PGD2 in the brain decreased to ([12]; 30 mg/kg AT-56 orally 1 h before the injury): 40%
amount of PGE2 in the brain ([12]; AT-56 orally 1–30 mg/kg): not significantly changed
amount of PGF2α in the brain ([12]; AT-56 orally 1–30 mg/kg): not significantly changed
acute toxic effects [13]: did not detect any acute toxic effects
effect on COX-2 activity [14]: not significantly affected

Structure (SMILES): c1ccc(C(OC2CCN(CCCc3nnn[nH]3)CC2)c2ccccc2)cc1 [HQL-79, 4-benzhydryloxy-1-(3-(1H-tetrazol-5-yl)-propyl)-piperidine, reference compound]
effect on PGD2 production [3]: inhibited PGD2 production
effect on PGD2 production ([11]; TE-671 cells): but not from TE-671 cells
